According to US12310975B2, “Modulators of BCL6 proteolysis and associated methods of use” (Arvinas Operations, Inc., priority 2019, dated 2025):

Target: BCL6 (Homo sapiens (Human), UniProt P41182)
Assay: Immunofluorescence high content imaging of BCL6 degradation in T47D cells
Format: cell-based
Details: not given
Method: Immunofluorescence Protocol for High Cotent Imaging of BCL6
T47D cells were seeded in 100 μl volume of RPMI1640-10% FBS in a 96-well black/clear bottom plates for adherent lines (Corning #3904).
Day 1. T47D breast cancer epithelial cells were seeded at a density so that confluence is ˜70-90% at endpoint. Cells were seeded at 7K/0.1 ml/well the morning prior to the addition of exemplary bifunctional degradation compounds.
Day 2. Prepare an 11 point 3-fold serial dilution of exemplary bifunctional compound in DMSO and aliquot an appropriate volume to cell growth media to generate a 2× final concentration of exemplary bifunctional compound. Add an equal volume (0.1 ml) of 2× exemplary bifunctional compound/media mix to previously plated cells, for a final top concentration in aqueous cell growth media of 0.1 or 1 μM. Incubate for 3 days at 37° C., 5% CO2.
Day 5 Immunofluorescence. Discard cell media. Wash wells with 200 μl of room temperature phosphate-buffered saline (PBS). Prepared 4% paraformaldehyde (PFA) from 16% PFA (Electron Microscopy Sciences #15710) using 1×PBS. Fifty μl of 4% PF was added to each well and incubate for 15 minutes at room temperature to fix the cells. The PFA was aspirated and the cells washed twice with PBS (200 μl)).
Prepared 0.1% Triton X-100 in PBS using 10% triton X-100 stock. The cells were permeabilized by adding 100 ul of the 0.1% Triton X-100 in PBS to each well to permeabilize cells and incubating at room temperature for 15 minutes. Cells were washed twice with PBS.
Prepared 3% BSA/PBS (from Thermofisher #37515 Blocker BSA in TBS, 10%), and 100 ul was added to each well. The cells were incubated for at least 1 hour at room temperature.
Prepared 1% BSA/PBS using Blocker BSA/PBS, and the 3% BSA/PBS removed from the wells.
For no primary antibody controls, 50 μl 1% BSA/PBS was added.
Primary antibody (BCL6 Rb Ab, CST-14895, Cell Signaling) was diluted 1:300 in 1% BSA/PBS using Blocker BSA/PBS.
Fifty μl of primary antibody added to all remaining wells (i.e., all wells other than the primary antibody controls) and the cells were incubated overnight at 4° C. with slow orbital movement.
Day 6. Contents of the wells was removed and the cells washed four times with 200 ul PBS. 1% BSA/PBS was prepared using Blocker BSA in PBS.
Diluted secondary antibody goat anti-Rb IgG Alexa-488 1:1000, and cell mask-Alexa-647 1:3000 in 1% BSA/PBS in the same mix. Add 50 μl to each well and incubate at room temperature for 1 hour in the dark.
Cells were washed three times with 200 ul PBS, and then incubated for 10 minutes with 100 ul Hoechst dye at 1 μg/mL (20 mM stock) to stain cell nuclei. Wells were then washed with 200 μl PBS, and 100 ul of PBS was added to each well and the plate covered plate with a plastic opaque cover. Plates were stored at 4° C. and covered in aluminum foil until imaged.
Plates were equilibrated to room temperature prior to reading. The bottom of the plate was wiped with 70% isopropanol immediately prior to imaging.
10×, 4 fields/well, include Top hat smoothing in the analysis protocol.

Row | SMILES | IC50 [nM]
1 | CNC(=O)COc1cc2cc(Nc3nc(N4CCN(CC5CCN(c6ccc7c(c6)C(=O)N(C6CCC(=O)NC6=O)C7=O)CC5)CC4)ncc3Cl)ccc2n(C(C)C)c1=O (stereo not shown) [Exemplary Compound 263, 2-[[6-([5-chloro-2-[4-([1-[2-(2,6-dioxopiperidin-3-yl)-1,3-dioxoisoindol-5-yl]piperidin-4-yl]methyl)piperazin-1-yl]pyrimidin-4-yl]amino)-1-isopropyl-2-oxoquinolin-3-yl]oxy]-N-methylacetamide] | 10 to 50

Same assay, conditions: T47D

Row | SMILES | Dmax [%]
2 | CNC(=O)COc1cc2cc(Nc3nc(N4CCN(CC5CCN(c6ccc7c(c6)C(=O)N(C6CCC(=O)NC6=O)C7=O)CC5)CC4)ncc3Cl)ccc2n(C(C)C)c1=O (stereo not shown) [Exemplary Compound 263, 2-[[6-([5-chloro-2-[4-([1-[2-(2,6-dioxopiperidin-3-yl)-1,3-dioxoisoindol-5-yl]piperidin-4-yl]methyl)piperazin-1-yl]pyrimidin-4-yl]amino)-1-isopropyl-2-oxoquinolin-3-yl]oxy]-N-methylacetamide] | 50 to 70

Same assay, conditions: T47D cells

Row | SMILES | Dmax [%] | IC50 [nM]
3 | CNC(=O)COc1cc2cc(Nc3nc(N4CCC(CN5[C@H](C)CN(c6cccc(C(=O)NC7CCC(=O)NC7=O)c6F)C[C@@H]5C)CC4)ncc3Cl)ccc2n(C)c1=O (mixture of isomers) [compound 370, rac-3-[(3R,5S)-4-({1-[5-chloro-4-({1-methyl-3-[(methylcarbamoyl)methoxy]-2-oxo-1,2-dihydroquinolin-6-yl}amino)pyrimidin-2-yl]piperidin-4-yl}methyl)-3,5-dimethylpiperazin-1-yl]-N-(2,6-dioxopiperidin-3-yl)-2-fluorobenzamide] | 50 to 70 | 10 to 50
4 | CNC(=O)COc1cc2cc(Nc3nc(N4CCC(CN5[C@H](C)CN(c6cccc7c6C(=O)N(C6CCC(=O)NC6=O)C7=O)C[C@@H]5C)CC4)ncc3Cl)ccc2n(C(C)C)c1=O (mixture of isomers) [compound 381, rac-2-[(6-{[5-chloro-2-(4-{[(2R,6S)-4-[2-(2,6-dioxopiperidin-3-yl)-1,3-dioxo-2,3-dihydro-1H-isoindol-4-yl]-2,6-dimethylpiperazin-1-yl]methyl}piperidin-1-yl)pyrimidin-4-yl]amino}-2-oxo-1-(propan-2-yl)-1,2-dihydroquinolin-3-yl)oxy]-N-methylacetamide] | 50 to 70 | < 10

Same assay, conditions: class symbols A-D, read-out: EC50 (nM)*

Row | SMILES | DC50 [nM]
5 | CNC(=O)COc1cc2cc(Nc3nc(N4CCC(OCCOCCOCCOc5cc(-c6scnc6C)ccc5CNC(=O)[C@@H]5C[C@@H](O)CN5C(=O)[C@H](c5cc(C)no5)C(C)C)CC4)ncc3Cl)ccc2n(C)c1=O [compound 49, (2S,4R)-N-(2-(2-(2-(2-((1-(5-chloro-4-((1-methyl-3-(2-(methylamino)-2-oxoethoxy)-2-oxo-1,2-dihydroquinolin-6-yl)amino)pyrimidin-2-yl)piperidin-4-yl)oxy)ethoxy)ethoxy)ethoxy)-4-(4-methylthiazol-5-yl)benzyl)-4-hydroxy-1-((S)-3-methyl-2-(3-methylisoxazol-5-yl)butanoyl)pyrrolidine-2-carboxamide] | > 100
6 | CNC(=O)COc1cc2cc(Nc3nc(N4CCC(OCCOCCOCCOc5cc(-c6scnc6C)ccc5CNC(=O)[C@@H]5C[C@@H](O)CN5C(=O)[C@@H](c5cc(C)no5)C(C)C)CC4)ncc3Cl)ccc2n(C)c1=O [compound 50, (2S,4R)-N-(2-(2-(2-(2-((1-(5-chloro-4-((1-methyl-3-(2-(methylamino)-2-oxoethoxy)-2-oxo-1,2-dihydroquinolin-6-yl)amino)pyrimidin-2-yl)piperidin-4-yl)oxy)ethoxy)ethoxy)ethoxy)-4-(4-methylthiazol-5-yl)benzyl)-4-hydroxy-1-((R)-3-methyl-2-(3-methylisoxazol-5-yl)butanoyl)pyrrolidine-2-carboxamide] | > 100
7 | CNC(=O)COc1cc2cc(Nc3nc(N4CCC(OCCOCCOCCOCC(=O)N[C@H](C(=O)N5C[C@H](O)C[C@H]5C(=O)NCc5ccc(-c6scnc6C)cc5)C(C)(C)C)CC4)ncc3Cl)ccc2n(C)c1=O [compound 51, (2S,4R)-1-((S)-2-(tert-butyl)-14-((1-(5-chloro-4-((1-methyl-3-(2-(methylamino)-2-oxoethoxy)-2-oxo-1,2-dihydroquinolin-6-yl)amino)pyrimidin-2-yl)piperidin-4-yl)oxy)-4-oxo-6,9,12-trioxa-3-azatetradecanoyl)-4-hydroxy-N-(4-(4-methylthiazol-5-yl)benzyl)pyrrolidine-2-carboxamide] | > 100
8 | CNC(=O)COc1cc2cc(Nc3nc(N4CCC(OCCOCCOCCOc5ccc6c(c5)C(=O)N(C5CCC(=O)NC5=O)C6=O)CC4)ncc3Cl)ccc2n(C)c1=O (stereo not shown) [compound 52, 2-((6-((5-chloro-2-(4-(2-(2-(2-((2-(2,6-dioxopiperidin-3-yl)-1,3-dioxoisoindolin-5-yl)oxy)ethoxy)ethoxy)ethoxy)piperidin-1-yl)pyrimidin-4-yl)amino)-1-methyl-2-oxo-1,2-dihydroquinolin-3-yl)oxy)-N-methylacetamide] | 50 to 100
9 | CNC(=O)COc1cc2cc(Nc3nc(N4CCC(OCCOCCOc5cc(-c6scnc6C)ccc5CNC(=O)[C@@H]5C[C@@H](O)CN5C(=O)C(c5cc(C)no5)C(C)C)CC4)ncc3Cl)ccc2n(C)c1=O (stereo partly drawn) [compound 53, (2S,4R)-N-(2-(2-(2-((1-(5-chloro-4-((1-methyl-3-(2-(methylamino)-2-oxoethoxy)-2-oxo-1,2-dihydroquinolin-6-yl)amino)pyrimidin-2-yl)piperidin-4-yl)oxy)ethoxy)ethoxy)-4-(4-methylthiazol-5-yl)benzyl)-4-hydroxy-1-(3-methyl-2-(3-methylisoxazol-5-yl)butanoyl)pyrrolidine-2-carboxamide] | > 100
10 | CNC(=O)COc1cc2cc(Nc3nc(N4CCC(OCCOCCOCCOCCOc5cc(-c6scnc6C)ccc5CNC(=O)[C@@H]5C[C@@H](O)CN5C(=O)C(c5cc(C)no5)C(C)C)CC4)ncc3Cl)ccc2n(C)c1=O (stereo partly drawn) [compound 54, (2S,4R)-N-(2-(2-(2-(2-(2-((1-(5-chloro-4-((1-methyl-3-(2-(methylamino)-2-oxoethoxy)-2-oxo-1,2-dihydroquinolin-6-yl)amino)pyrimidin-2-yl)piperidin-4-yl)oxy)ethoxy)ethoxy)ethoxy)ethoxy)-4-(4-methylthiazol-5-yl)benzyl)-4-hydroxy-1-(3-methyl-2-(3-methylisoxazol-5-yl)butanoyl)pyrrolidine-2-carboxamide] | > 100
11 | CNC(=O)COc1cc2cc(Nc3nc(N4CCC(OCCOCCOCCOCCOCCOc5cc(-c6scnc6C)ccc5CNC(=O)[C@@H]5C[C@@H](O)CN5C(=O)C(c5cc(C)no5)C(C)C)CC4)ncc3Cl)ccc2n(C)c1=O (stereo partly shown) [compound 55] | > 100
12 | CNC(=O)COc1cc2cc(Nc3nc(N4CCC(OCCOc5cc(-c6scnc6C)ccc5CNC(=O)[C@@H]5C[C@@H](O)CN5C(=O)C(c5cc(C)no5)C(C)C)CC4)ncc3Cl)ccc2n(C)c1=O (stereo partly drawn) [compound 56, (2S,4R)—N-(2-(2-((1-(5-chloro-4-((1-methyl-3-(2-(methylamino)-2-oxoethoxy)-2-oxo-1,2-dihydroquinolin-6-yl)amino)pyrimidin-2-yl)piperidin-4-yl)oxy)ethoxy)-4-(4-methylthiazol-5-yl)benzyl)-4-hydroxy-1-(3-methyl-2-(3-methylisoxazol-5-yl)butanoyl)pyrrolidine-2-carboxamide] | > 100
13 | CNC(=O)COc1cc2cc(Nc3nc(N4CCC(OCCOCCOCCNc5cccc6c5C(=O)N(C5CCC(=O)NC5=O)C6=O)CC4)ncc3Cl)ccc2n(C)c1=O (stereo not shown) [compound 57, 2-((6-((5-chloro-2-(4-(2-(2-(2-((2-(2,6-dioxopiperidin-3-yl)-1,3-dioxoisoindolin-4-yl)amino)ethoxy)ethoxy)ethoxy)piperidin-1-yl)pyrimidin-4-yl)amino)-1-methyl-2-oxo-1,2-dihydroquinolin-3-yl)oxy)-N-methylacetamide] | > 100
14 | CNC(=O)COc1cc2cc(Nc3nc(N4CCC(OCCOCCOCCOCCOCCOCCOc5cc(-c6scnc6C)ccc5CNC(=O)[C@@H]5C[C@@H](O)CN5C(=O)C(c5cc(C)no5)C(C)C)CC4)ncc3Cl)ccc2n(C)c1=O (stereo partly drawn) [compound 58, (2S,4R)-N-(2-((17-((1-(5-chloro-4-((1-methyl-3-(2-(methylamino)-2-oxoethoxy)-2-oxo-1,2-dihydroquinolin-6-yl)amino)pyrimidin-2-yl)piperidin-4-yl)oxy)-3,6,9,12,15-pentaoxaheptadecyl)oxy)-4-(4-methylthiazol-5-yl)benzyl)-4-hydroxy-1-(3-methyl-2-(3-methylisoxazol-5-yl)butanoyl)pyrrolidine-2-carboxamide] | > 100
